Key:
AurA = molecular target: T1, AurA (Homo sapiens, UniProt O14965); experiment: AurA Luminescence-based Enzyme Assay (Kinase-Glo); assay type: biochemical
T1 construct: made in house; host or cells: Sf9 insect cells
T1 sequence (O14965 1-403): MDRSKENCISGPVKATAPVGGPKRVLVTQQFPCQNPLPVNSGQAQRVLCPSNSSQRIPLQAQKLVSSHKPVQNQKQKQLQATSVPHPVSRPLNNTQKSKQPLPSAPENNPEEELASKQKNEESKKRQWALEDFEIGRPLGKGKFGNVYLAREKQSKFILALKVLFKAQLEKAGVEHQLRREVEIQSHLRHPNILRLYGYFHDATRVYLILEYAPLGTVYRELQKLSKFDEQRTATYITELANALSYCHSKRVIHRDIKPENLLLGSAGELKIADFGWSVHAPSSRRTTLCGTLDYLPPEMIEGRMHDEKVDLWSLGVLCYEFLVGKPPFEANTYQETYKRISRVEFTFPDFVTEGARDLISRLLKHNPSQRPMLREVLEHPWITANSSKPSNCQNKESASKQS
From the text: Homogeneous luminescence-based inhibitor screening assays were developed for c-Abl, MET, AurA, and PDK1 kinases (among others). Each of these assays made use of an ATP depletion assay (Kinase-Glo™, Promega Corporation, Madison, Wis.) to quantitate kinase activity. The Kinase-Glo™ format uses a thermostable luciferase to generate luminescent signal from ATP remaining in solution following the kinase reaction. The luminescent signal is inversely correlated with the amount of kinase activity.
Dose response was analyzed using the equation: y=min+{(max−min)/(1 +10^[compound]-logIC50)}, where y is the observed initial slope, max=the slope in the absence of inhibitor, min=the slope at infinite inhibitor, and the IC50 is the [compound] that corresponds to ½ the total observed amplitude (Amplitude=max−min).
The Sf9 insect cell pellets (˜18 g) produced from 6 L of cultured cells expressing human Aurora-2 were resuspended in 50 mM Na Phosphate pH 8.0, 500 mM NaCl, 10% glycerol, 0.2% n-octyl-β-D-glucopyranoside (BOG) and 3 mM β-Mercaptoethanol (BME). One tablet of Roche Complete, EDTA-free protease inhibitor cocktail (Cat# 1873580) and 85 units Benzonase (Novagen Cat#70746-3)) were added per 1 L of original culture. Pellets were resuspended in approximately 50 ml per 1 L of original culture and were then sonicated on ice with two 30-45 sec bursts (100% duty cycle). Debris was removed by centrifugation and the supernatant was passed through a 0.8 μm syringe filter before being loaded onto a 5 ml Ni^2+ HiTrap column (Pharmacia). The column was washed with 6 column volumes of 50 mM Na Phosphate pH 8.0, 500 mM NaCl, 10% glycerol, 3 mM BME. The protein was eluted using a linear gradient of the same buffer containing 500 mM Imidazole. The eluant (24 ml) was cleaved overnight at 4° C. in a buffer containing 50 mM Na Phosphate pH 8.0, 500 mM NaCl, 10% glycerol, 3 mM BME and 10,000 units of TEV (Invitrogen Cat#10127-017). The protein was passed over a second nickel affinity column as described above; the flow-through was collected. The cleaved protein fractions were combined and concentrated using spin concentrators. Further purification was done by gel filtration chromatography on a S75 sizing column in 50 mM Na Phosphate (pH 8.0), 250mM NaCl, 1 mM EDTA, 0.1 mM AMP-PNP or ATP buffer, and 5 mM DTT. The cleanest fractions were combined and concentrated to approximately 8-11 mg/ml, and were either flash frozen in liquid nitrogen in 120 μl aliquots and stored at −80° C., or stored at 4° C.
AurA Luminescence-based Enzyme Assay
Materials: Kemptide peptide substrate=LRRASLG (Biopeptide, San Diego, Calif.), ATP (Sigma Cat#A-3377, FW=551), HEPES buffer, pH 7.5, 10% Brij 35 (Calbiochem Cat# 203728), MgCl2, Staurosporine (Streptomyces sp. Sigma Cat#85660-1MG), white Costar 384-well flat -bottom plate (VWR Cat#29444-088), Autophosphorylated AurA kinase (see below), Kinase-Glo™ (Promega Cat#V6712).
Stock Solutions: 10 mM Kemptide peptide (7.72 mg/ml in water), stored at −20° C.; 100 mM HEPES buffer +0.015% Brij 35, pH 7.5 (5 ml 1M HEPES stock +75 μL 10% Brij 35+45 ml miliQH2O); 10 mM ATP (5.51 mg/ml in dH2O) stored at −20° C. (diluted 50 μl into total of 10 ml miliQH2O daily=50 μM ATP working stock); 100 mM MgCl2; 200 μM Staurosporine, 2× Kinase-Glo™ reagent (made fresh or stored at −20° C.).
AurA Autophosphorylation Reaction: ATP and MgCl2 were added to 1-5 mg/ml AurA at final concentrations of 10 mM and 100 mM, respectively. The autophosphorylation reaction was incubated at 21° C. for 2-3 h. The reaction was stopped by the addition of EDTA to a final concentration of 50 mM, and samples were flash frozen with liquid N2 and stored at −80° C.
Standard Assay Setup for 384-well format (20 μl kinase reaction, 40 μL detection reaction): 10 mM MgCl2; 0.2mM Kemptide peptide; 1 μl test compound (in DMSO); 0.3 μg/ml Autophosphorylated AurA kinase; 10 μM ATP; 100 mM HEPES+0.015% Brij buffer. Positive controls contained DMSO with no test compound. […]

GTL16 cells = experiment: 96-well XTT cell survival assay (GTL16 cells); assay type: cell-based; conditions: Homo sapiens, GTL 16, 72 hours
Procedure: GTL16 cells were maintained in DMEM Medium supplemented with 10% fetal bovine serum (FBS) 2 mM L-Glutamine and 100 units penicillin/100 μg streptomycin, at 37° C. in 5% CO2.
Compounds were tested in the following assays in duplicate.
96-well XTT assay (GLT16 cells): One day prior to assay the growth media was aspirated off and assay media was added to cells. On the day of the assay, the cells were grown in assay media containing various concentrations of compounds (duplicates) on a 96-well flat bottom plate for 72 hours at 37° C. in 5% CO2. The starting cell number was 5000 cells per well and volume was 120 μl. At the end of the 72-hour incubation, 40 μl of XTT labeling mixture (50:1 solution of sodium 3′-[1-(phenylaminocarbonyl)-3,4-tetrazolium]-bis (4-methoxy-6-nitro) benzene sulfonic acid hydrate and Electron-coupling reagent: PMS (N-methyl dibenzopyrazine methyl sulfate) were added to each well of the plate. After an additional 5 hours of incubation at 37° C., the absorbance reading at 450 nm with a background correction of 650 nm was measured with a spectrophotometer.

SMILES	IC50 (AurA) [nM]	IC50 (GTL16 cells) [nM]
O=C(Nc1cc[nH]n1)Nc1nc2[nH]nc(-n3cncc3-c3ccccc3Cl)c2s1 [1-{3-[5-(2-Chloro-phenyl)-imidazol-1-yl]-1H-pyrazolo[3,4-d]thiazol-5-yl}-3-(1H-pyrazol-3-yl)-urea]	1000 to 10000	< 100
O=C(Nc1nc2[nH]nc(-n3cncc3-c3cccc(F)c3F)c2s1)C1CC1 [Cyclopropanecarboxylic acid {3-[5-(2,3-difluoro-phenyl)-imidazol-1-yl]-1H-pyrazolo[3,4-d]thiazol-5-yl}-amide]	1000 to 10000	1000 to 10000
O=C(Nc1nc2[nH]nc(-n3cncc3-c3ccc4ccccc4c3)c2s1)C1CC1 [Cyclopropanecarboxylic acid [3-(5-naphthalen-2-yl-imidazol-1-yl)-1H-pyrazolo[3,4-d]thiazol-5-yl]-amide]	1000 to 10000	
O=C(Nc1nc2[nH]nc(-n3cncc3-c3c(Cl)cccc3Cl)c2s1)C1CC1 [Cyclopropanecarboxylic acid {3-[5-(2,6-dichloro-phenyl)-imidazol-1-yl]-1H-pyrazolo[3,4-d]thiazol-5-yl}-amide]	< 100	< 100
O=C(Nc1nc2[nH]nc(-n3cncc3-c3cc(Cl)cc(Cl)c3Cl)c2s1)C1CC1 [Cyclopropanecarboxylic acid {3-[5-(2,3,5-trichloro-phenyl)-imidazol-1-yl]-1H-pyrazolo[3,4-d]thiazol-5-yl}-amide]	100 to 1000	
O=C(Nc1nc2[nH]nc(-n3cncc3-c3ccccn3)c2s1)C1CC1 [Cyclopropanecarboxylic acid [3-(5-pyridin-2-yl-imidazol-1-yl)-1H-pyrazolo[3,4-d]thiazol-5-yl]-amide]	> 10000	
O=C(Nc1nc2[nH]nc(-n3cncc3-c3ccccc3)c2s1)C1CC1 [Cyclopropanecarboxylic acid [3-(5-phenyl-imidazol-1-yl)-1H-pyrazolo[3,4-d]thiazol-5-yl]-amide]	1000 to 10000	1000 to 10000
O=C(Nc1nc2[nH]nc(-n3cncc3-c3c(Cl)ccc(Cl)c3Cl)c2s1)C1CC1 [Cyclopropanecarboxylic acid {3-[5-(2,3,6-trichloro-phenyl)-imidazol-1-yl]-1H-pyrazolo[3,4-d]thiazol-5-yl}-amide]	< 100	100 to 1000

Further lines, with some results ahead:

IC50 (AurA) [nM]	SMILES	IC50 (GTL16 cells) [nM]
100 to 1000	NC(=O)COc1ccc(-c2cncn2-c2n[nH]c3nc(NC(=O)C4CC4)sc23)c(Cl)c1 [Cyclopropanecarboxylic acid {3-[5-(4-carbamoylmethoxy-2-chloro-phenyl)-imidazol-1-yl]-1H-pyrazolo[3,4-d]thiazol-5-yl}-amide]	
100 to 1000	CS(=O)(=O)c1ccc(F)cc1-c1cncn1-c1n[nH]c2nc(NC(=O)C3CC3)sc12 [Cyclopropanecarboxylic acid {3-[5-(5-fluoro-2-methanesulfonyl-phenyl)-imidazol-1-yl]-1H-pyrazolo[3,4-d]thiazol-5-yl}-amide]	
> 10000	COc1ccc2nc(Cl)c(-c3cncn3-c3n[nH]c4nc(NC(=O)C5CC5)sc34)cc2c1 [Cyclopropanecarboxylic acid {3-[5-(2-chloro-6-methoxy-quinolin-3-yl)-imidazol-1-yl]-1H-pyrazolo[3,4-d]thiazol-5-yl}-amide]	
< 100	O=C(Nc1nc2[nH]nc(-n3cncc3-c3ccccc3Cl)c2s1)C1CC1 [Cyclopropanecarboxylic acid {3-[5-(2-chloro-phenyl)-imidazol-1-yl]-1H-pyrazolo[3,4-d]thiazol-5-yl}-amide]	100 to 1000
